Source: patent publication US5521155A, “Amides of teicoplanin compounds” (Gruppo Lepetit S.p.A, priority 1985, dated 1996)
In brackets after ≈: the same amount, converted by molar mass.

What was measured:
[1] = Isoelectric point (pI) by isoelectrofocusing with bioautography detection; type: physicochemical; conditions: IEF technique, polyacrylamide gel
Description: The isoelectrofocusing (IEF) technique coupled with bioautography detection has been used for the determination of the pI of representative compounds of the invention using the following materials: AMPHOLINE carrier ampholytes (40% w/v) were purchased from LKB Produketer AB, Bromma, Sweden. Acrylamide, N,N'-methylenbisacrylamide (BIS), N,N,N',N'-tetramethylethylenediamine (TEMED) and ammonium persulfate were from Bio Rad Laboratorie, Richmond, Calif., USA. Glycerol and Antibiotic agar N. 1 (Grove and Randall medium N. 1) were from E. Merck Darmstadt FRG. GEL FIX polyester sheets were purchased from Serva Feinbiochemica Heidelberg. Phenolindo (2,6-dichlorophenol) came from BDH Chemicals Ltd. Poole, England.
IEF was made on gel slab using a LKB MULITPHOR 2117 cell and a Bio-Rad Power Supply Model 1420A. Slabs of 24.5×11.5 cm and 1 mm thickness were prepared on a sheet of GEL FIX. Polyacrylamide gels with a concentration of 8% T and with a cross-linkage of 4% C (30% T stock solution was prepared by dissolving 28.8 g of acrylamide and 1.2 g of bis-acrylamide in 100 ml distilled water), glycerol, 3.5% v/v, 2% AMPHOLINE, 0.05% ammonium persulphate as catalyst and 0.05% TEMED as accelerator. The carrier ampholite composition for 35 ml gelling solution was as follows:
The electrode solutions, as recommended by LKB for the respective pH range, were:
The gel was cooled to 4° C. with the aid of a LKB 2209 refrigerated constant temperature circulator. After prefocusing for 30 min. at 5 W, the samples (20 μl containing 0.2 to 2.5 μg of antibiotic) were loaded into the slot at the cathodic side. Electrofocusing was performed using 10 W constant power and was completed after 3-31/2 hours with a final potential of 1400 V.
The pH values were determined by dividing a portion of the gel into 1 cm sections, and eluting the individual pieces at room temperature with 1 ml of 10 mM KCl prior to pH readings.
The isoelectric point of each antibiotic was determined by interpolation on a curve obtained by plotting pH values versus the distance from the anode.
Polyacrylamide gel was placed on a 3 mm layer of agar medium N. 1 inoculated with 1% of Bacillus subtilis ATCC 6633 spore (0.5 OD at 600 nm). After 10 min the gel was removed and the plate was incubated overnight at 37° C. and examined for inhibition zones. The contrast between the area of lysis and that of bacterial growth was enhanced by use of Phenolindo(2,6-dichlorophenol) 1% w/v (oxidation-reduction indicator).

S. pyogenes L 49 = assay: In vivo test in mice experimentally infected with S. pyogenes L 49 (ED50); conditions: mice infected with S. pyogenes L 49; for ED50, route of administration os.: oral
[2] = system: Proteus vulgaris X 19H ATCC 881; assay: In vitro antibacterial activity, standard agar-dilution test (MIC); type: cell-based; conditions: inoculum about 10^4 CFU/ml, 18-24 h at 37° C.
Method: (§1) The culture medium ISOSENSITEST BROTH (Oxoid) and the colture medium TODD-[…] BROTH (Difco) are used for growing staphylococci and streptococci, respectively. Broth cultures are diluted so that the final inoculum is about 10^4 colony forming units/ml (CFU/ml).

S. aureus Tour = assay: as above; type: cell-based; conditions: inoculum about 10^4 CFU/ml, 18-24 h at 37° C.
Method: as §1

[3] = system: S. epidermidis ATCC 12228; assay: as above; type: cell-based; conditions: inoculum about 10^4 CFU/ml, 18-24 h at 37° C.
Method: as §1

S. aureus ATCC 6538 = assay: as above; type: cell-based; conditions: inoculum about 10^4 CFU/ml, 18-24 h at 37° C.
Method: as §1

E. coli SKF 12140 = assay: as above; type: cell-based; conditions: inoculum about 10^4 CFU/ml, 18-24 h at 37° C.
Method: as §1

S. pneumoniae UC 41 = assay: as above; type: cell-based; conditions: inoculum about 10^4 CFU/ml, 18-24 h at 37° C.
Method: as §1

[4] = system: Pseudomonas aeruginosa ATCC 10145; assay: as above; type: cell-based; conditions: inoculum about 10^4 CFU/ml, 18-24 h at 37° C.
Method: as §1

S. faecalis ATCC 7080 = assay: as above; type: cell-based; conditions: inoculum about 10^4 CFU/ml, 18-24 h at 37° C.
Method: as §1

S. pyogenes C 203 = assay: as above; type: cell-based; conditions: inoculum about 10^4 CFU/ml, 18-24 h at 37° C.
Method: as §1

Acid-base titration (pK) = type: physicochemical; conditions: for pK1 / pK2: acid-base titration in METHYLCELLOSOLVE/H2O 4:1 (v/v), 0.01N KOH, salt form per Table IV
Method: The following table (Table IV) reports the acid-base titration data of some representative compounds of the invention. The assays were carried out in METHYLCELLOSOLVE/H2 O, 4:1(v/v). A sample is dissolved in METHYLCELLOSOLVE/H2 O, 4:1(v/v) (10 umole in about 20 ml) and then 0.01N HCl (2 ml) is added and the mixture is titrated with 0.01N KOH in the same solvent mixture.

Isoelectric point (pI) [1]	MIC Proteus vulgaris X 19H ATCC 881 [2] [µg/mL]	MIC S. aureus Tour (S. aureus Tour) [µg/mL]	MIC S. epidermidis ATCC 12228 [3] [µg/mL]	MIC S. aureus ATCC 6538 (S. aureus ATCC 6538) [µg/mL]	MIC E. coli SKF 12140 (E. coli SKF 12140) [µg/mL]	MIC S. pneumoniae UC 41 (S. pneumoniae UC 41) [µg/mL]	MIC Pseudomonas aeruginosa ATCC 10145 [4] [µg/mL]	MIC S. faecalis ATCC 7080 (S. faecalis ATCC 7080) [µg/mL]	MIC S. pyogenes C 203 (S. pyogenes C 203) [µg/mL]	pK1 (Acid-base titration (pK))	pK2 (Acid-base titration (pK))	pK3 (value between brackets) (Acid-base titration (pK); between brackets: due to titration of the carboxylic function of the salifying acid)	SMILES	ED50, route of administration os. (S. pyogenes L 49) [mg/kg]	ED50, route of administration s.c (S. pyogenes L 49) [mg/kg]
7.8	> 128	1 (≈ 0.672 µM)	0.12 (≈ 0.0807 µM)	0.5 (≈ 0.336 µM)	128 (≈ 86.1 µM)	1 (≈ 0.672 µM)	> 128	1 (≈ 0.672 µM)	0.25 (≈ 0.168 µM)				CCOC(=O)CNC(=O)C1NC(=O)C2NC(=O)C(NC(=O)C3NC(=O)C4NC(=O)C(Cc5ccc(c(Cl)c5)Oc5cc3cc(c5O)Oc3ccc(cc3Cl)C2OC2OC(CO)C(O)C(O)C2NC(C)=O)NC(=O)C(N)c2ccc(O)c(c2)Oc2cc(O)cc4c2)c2ccc(O)c(c2)-c2c(O)cc(O)cc21 (centres unmarked) [Compound 16]	> 300	5
8.9	16 (≈ 12.5 µM)	0.12 (≈ 0.0935 µM)	0.016 (≈ 0.0125 µM)	0.06 (≈ 0.0468 µM)	8 (≈ 6.23 µM)	0.12 (≈ 0.0935 µM)	32 (≈ 24.9 µM)	0.12 (≈ 0.0935 µM)	0.06 (≈ 0.0468 µM)				CN(C)CCCNC(=O)C1NC(=O)C2NC(=O)C(NC(=O)C3NC(=O)C4NC(=O)C(Cc5ccc(c(Cl)c5)Oc5cc3cc(c5O)Oc3ccc(cc3Cl)C2O)NC(=O)C(N)c2ccc(O)c(c2)Oc2cc(O)cc4c2)c2ccc(O)c(c2)-c2c(O)cc(O)cc21 (centres unmarked) [Compound 18]	140	0.31
8.7	32 (≈ 24.4 µM)	0.12 (≈ 0.0915 µM)	0.032 (≈ 0.0244 µM)	0.12 (≈ 0.0915 µM)	8 (≈ 6.1 µM)	0.12 (≈ 0.0915 µM)	32 (≈ 24.4 µM)	0.12 (≈ 0.0915 µM)	0.06 (≈ 0.0458 µM)	6.30	8.0		CCN(CC)CCCNC(=O)C1NC(=O)C2NC(=O)C(NC(=O)C3NC(=O)C4NC(=O)C(Cc5ccc(c(Cl)c5)Oc5cc3cc(c5O)Oc3ccc(cc3Cl)C2O)NC(=O)C(N)c2ccc(O)c(c2)Oc2cc(O)cc4c2)c2ccc(O)c(c2)-c2c(O)cc(O)cc21 (centres unmarked) [Compound 19]	> 300	0.18
8.7	32 (≈ 23.4 µM)	0.25 (≈ 0.183 µM)	0.063 (≈ 0.0461 µM)	0.6 (≈ 0.439 µM)	8 (≈ 5.85 µM)	0.12 (≈ 0.0878 µM)	64 (≈ 46.8 µM)	0.25 (≈ 0.183 µM)	0.06 (≈ 0.0439 µM)	6.1	8.3		CCCCN(CCCC)CCCNC(=O)C1NC(=O)C2NC(=O)C(NC(=O)C3NC(=O)C4NC(=O)C(Cc5ccc(c(Cl)c5)Oc5cc3cc(c5O)Oc3ccc(cc3Cl)C2O)NC(=O)C(N)c2ccc(O)c(c2)Oc2cc(O)cc4c2)c2ccc(O)c(c2)-c2c(O)cc(O)cc21 (centres unmarked) [Compound 20]	> 300	0.72
7.9	128 (≈ 97.6 µM)	0.12 (≈ 0.0915 µM)	0.016 (≈ 0.0122 µM)	0.06 (≈ 0.0458 µM)	16 (≈ 12.2 µM)	0.12 (≈ 0.0915 µM)	64 (≈ 48.8 µM)	0.12 (≈ 0.0915 µM)	0.12 (≈ 0.0915 µM)	5.01	6.8		NC1C(=O)NC2Cc3ccc(c(Cl)c3)Oc3cc4cc(c3O)Oc3ccc(cc3Cl)C(O)C3NC(=O)C(NC(=O)C4NC(=O)C(NC2=O)c2cc(O)cc(c2)Oc2cc1ccc2O)c1ccc(O)c(c1)-c1c(O)cc(O)cc1C(C(=O)NCCN1CCOCC1)NC3=O (centres unmarked) [Compound 21]	> 300	2.2
8.0	64 (≈ 50 µM)	0.12 (≈ 0.0937 µM)	0.032 (≈ 0.025 µM)	0.06 (≈ 0.0468 µM)	16 (≈ 12.5 µM)	0.12 (≈ 0.0937 µM)	32 (≈ 25 µM)	0.12 (≈ 0.0937 µM)	0.12 (≈ 0.0937 µM)	5.6	6.8		CN1CCN(C(=O)C2NC(=O)C3NC(=O)C(NC(=O)C4NC(=O)C5NC(=O)C(Cc6ccc(c(Cl)c6)Oc6cc4cc(c6O)Oc4ccc(cc4Cl)C3O)NC(=O)C(N)c3ccc(O)c(c3)Oc3cc(O)cc5c3)c3ccc(O)c(c3)-c3c(O)cc(O)cc32)CC1 (centres unmarked) [Compound 23]	> 300	0.95
	> 128	0.12 (≈ 0.0893 µM)	0.063 (≈ 0.0469 µM)	0.06 (≈ 0.0446 µM)	32 (≈ 23.8 µM)	0.06 (≈ 0.0446 µM)	> 128	0.12 (≈ 0.0893 µM)	0.06 (≈ 0.0446 µM)	5.75	7.4	6.6	NC1C(=O)NC2Cc3ccc(c(Cl)c3)Oc3cc4cc(c3O)Oc3ccc(cc3Cl)C(O)C3NC(=O)C(NC(=O)C4NC(=O)C(NC2=O)c2cc(O)cc(c2)Oc2cc1ccc2O)c1ccc(O)c(c1)-c1c(O)cc(O)cc1C(C(=O)N1CCN(c2ccccn2)CC1)NC3=O (centres unmarked) [Compound 24]	> 300	0.72
7.8	64 (≈ 50.5 µM)	0.12 (≈ 0.0946 µM)	0.016 (≈ 0.0126 µM)	0.12 (≈ 0.0946 µM)	16 (≈ 12.6 µM)	0.12 (≈ 0.0946 µM)	64 (≈ 50.5 µM)	0.12 (≈ 0.0946 µM)	0.12 (≈ 0.0946 µM)	6.6			NC1C(=O)NC2Cc3ccc(c(Cl)c3)Oc3cc4cc(c3O)Oc3ccc(cc3Cl)C(O)C3NC(=O)C(NC(=O)C4NC(=O)C(NC2=O)c2cc(O)cc(c2)Oc2cc1ccc2O)c1ccc(O)c(c1)-c1c(O)cc(O)cc1C(C(=O)N1CCOCC1)NC3=O (centres unmarked) [Compound 25]	> 300	1.02
